Results: patent publication EP1985629A1, “Pro-apoptotic molecules and therapeutic uses thereof” (UNIVERSITA DEGLI STUDI DI GENOVA, priority 2007, dated 2008)
Where a SMILES comes first, the peptide text is derived from it. [ ]: non-standard residue; d: D form. Aib = CC(C)(N)C(=O)O

What was measured:
Format in all cases: cell-based, human
[1] = test system: tumour cell lines; experiment: DNA flow cytometry (PI/SSC) for apoptosis in tumour cell lines; conditions: 4 days
Description: • Figure 1 Fluorescence Anisotropy Assay. Average anisotropy values: (open square) binding assay for increasing concentrations of Bcl-XL at a fixed concentration of fluorescent Bak-BH3 peptide. […] The error bars represent standard deviations observed from triplicate experiments. • Figure 2 072RB: cell growth effects. Panel A: Cell growth of U937 cell line treated for four days every 24 h at a 1 µM 072RB concentration and every 48 h at 3, 5, 10 and 30 µM 072RB concentrations. U937 controls at day 4, cell number: 350,000 ±50,000. Number of cells seeded at day 0: 20,000. Arrows indicate treatment time. […] All cells were counted in a Burker chamber and values are expressed as percentage of the untreated control cell number. Only living cells identified by trypan blue exclusion staining were counted. […] Flow cytometry measurements of DNA content (evaluated by propidium iodide (PI) fluorescence intensity) and physical cell side-scattering (evaluated by SSC) in U937 cells treated with Int and 072RB at 10 µM, twice each 48h. […] Three main cell populations can be observed in the bivariate PI/SSC plots, one with low SSC and normal DNA content (that accounts for "live" cells in culture), another with high SSC and normal DNA content (cells undergoing "early stage of apoptosis") and another one with lower PI fluorescence (cells at "late stage of apoptosis" and debris). […]

[2] = test system: caspase 9; experiment: Caspase 9 activation (FITC-LEHD-FMK, FACS analysis); conditions: 48 h
Description: (§1) The activation of caspase-9 (mitochondrial apoptosis) and caspase-3 (activated downstream of caspase-9), was evaluated in cell lines (10^6 cells/well in a 24 wells plate) incubated with different concentrations of 072RB (1, 10 µM for 24h, 48h and 72h, in complete RPMI medium + 10% FCS at 37°C, using the caspase-9 and caspase-3 Detection Kit (Calbiochem, Darmstadt, Germany). The assay utilizes LEHD-FMK or DEVD-FMK conjugated to fluorescein-isothiocyanate (FITC) as caspase-9 or caspase-3 in situ marker. FITC-LEHD-FMK and FITC-DEVD-FMK are cell permeable, non toxic, and irreversibly bind only to activated caspase-9 or -3 in apoptotic cells. Samples were run on a flow cytometer (FACSort, Becton Dickinson) equipped with an argon ion laser exiting FITC at 488nm, At least 10^5 events were analysed for each sample using the CellQuest computer program. Data are expressed as Log green fluorescence intensity (a.u.) vs cell number. Calibration was assessed with CALIBRITE particles (Becton Dickinson) using the AutoCOMP computer program.
(§2) Cells were incubated for 24, 48 and 72 h with 072RB (10 µM) or Int (10 µM), together with FITC-LEDH-FMK or FITC-DEVD-FMK, to detect caspase 9 and caspase 3 activation, respectively (FACS analysis). […] Furthermore, caspase 3, a downstream substrate of caspase 9, was progressively activated at increasing incubation times with 072RB. After 24 h of incubation 30% of U937, 35% of Namalwa, 22% of Jurkat cells, respectively, were positive for activated caspase 3; after 72 h of incubation 70% of U937, 60% of Namalwa, and 35% of Jurkat cells, respectively, had activated caspase 3. On the contrary, a negligible fraction of cells incubated with the Int peptide (1-3%), a % similar to that observed in untreated cells, expressed activated caspase 3.

[3] = test system: caspase 3; experiment: Caspase 3 activation (FITC-DEVD-FMK, FACS analysis); conditions: for cells positive for activated caspase 3: 24 h; for cells with activated caspase 3: 72 h
Description: as §1, §2

Compound | cell death (alive, early- and late-apoptotic fractions) ([1]; three cancer lines, 10 µM) | fraction of cells expressing activated caspase 9 ([2]; Jurkat, 10 µM) | fraction of cells expressing activated caspase 9 ([2]; Namalwa, 10 µM) | fraction of cells expressing activated caspase 9 ([2]; U937, 10 µM) | fraction of cells expressing activated caspase 3 ([3]; 10 µM, cell line and time not specified, similar to untreated cells) | cell death (alive, early- and late-apoptotic fractions) ([1]; three tumour cell lines, 5 to 10 µM) | cells positive for activated caspase 3 ([3]; Jurkat, 10 µM) [%] | cells with activated caspase 3 ([3]; Jurkat, 10 µM) [%] | cells positive for activated caspase 3 ([3]; Namalwa, 10 µM) [%] | cells with activated caspase 3 ([3]; Namalwa, 10 µM) [%] | cells positive for activated caspase 3 ([3]; U937, 10 µM) [%] | cells with activated caspase 3 ([3]; U937, 10 µM) [%]
KKWKMRRNPFWIKIQR [Int, internalisation tag, a modified Q50P 16 aa Antennapedia IIIrd α-helix, reference compound] | substantially inactive | 1.3% | 2.0% | 1.5% | 1-3% |  |  |  |  |  |  | 
CC[C@H](C)[C@H](NC(=O)[C@H](CCCNC(=N)N)NC(=O)[C@H](CCCNC(=N)N)NC(=O)[C@H](CC(C)C)NC(=O)[C@H](CCC(=O)O)NC(=O)[C@H](CCC(N)=O)NC(=O)C(C)(C)NC(=O)[C@@H](NC(=O)[C@H](Cc1ccc(O)cc1)NC(=O)[C@@H](NC(=O)[C@H](CCC(=O)O)NC(=O)[C@@H]1CCCN1C(=O)[C@H](CCCNC(=N)N)NC(=O)[C@H](CCSC)NC(=O)[C@@H](N)CC(=O)O)[C@@H](C)CC)[C@@H](C)CC)C(=O)NCC(=O)N[C@@H](CC(=O)O)C(=O)N[C@@H](C)C(=O)N[C@@H](Cc1ccccc1)C(=O)N[C@@H](CC(N)=O)C(=O)NC(C)(C)C(=O)N[C@@H](Cc1ccc(O)cc1)C(=O)N[C@@H](CCCCN)C(=O)N[C@@H](CCCCN)C(=O)N[C@@H](Cc1c[nH]c2ccccc12)C(=O)N[C@@H](CCCCN)C(=O)N[C@@H](CCSC)C(=O)N[C@@H](CCCNC(=N)N)C(=O)N[C@@H](CCCNC(=N)N)C(=O)N[C@@H](CC(N)=O)C(=O)N1CCC[C@H]1C(=O)N[C@@H](Cc1ccccc1)C(=O)N[C@@H](Cc1c[nH]c2ccccc12)C(=O)N[C@H](C(=O)N[C@@H](CCCCN)C(=O)N[C@H](C(=O)N[C@@H](CCC(N)=O)C(=O)N[C@@H](CCCNC(=N)N)C(N)=O)[C@@H](C)CC)[C@@H](C)CC [Peptide 072RB] (H-DMRPEIYI[Aib]QELRRIGDAFN[Aib]YKKWKMRRNPFWIKIQR-NH2; N-terminus and C-terminus assumed) |  | 10-33% | 15-35% | 30-65% |  | Significant cell death | 22 | 35 | 35 | 60 | 30 | 70
